US20240308960A1 (Sumitomo Pharma Co., Ltd., priority 2021, published 2024)

biological target: T1, Human orexin receptor type 2 (Homo sapiens, UniProt O43614); assay: Test Example 1: agonist activity for orexin receptor type 2 (aequorin luminescence, intracellular calcium mobilization); settings: compound 10 μm; CHO cells transiently expressing human orexin receptor type 2 and apoaequorin; relative percentage of luminescence for the luminescence (100%) of Orexin A (100 μM)
T1 sequence (O43614 1-444): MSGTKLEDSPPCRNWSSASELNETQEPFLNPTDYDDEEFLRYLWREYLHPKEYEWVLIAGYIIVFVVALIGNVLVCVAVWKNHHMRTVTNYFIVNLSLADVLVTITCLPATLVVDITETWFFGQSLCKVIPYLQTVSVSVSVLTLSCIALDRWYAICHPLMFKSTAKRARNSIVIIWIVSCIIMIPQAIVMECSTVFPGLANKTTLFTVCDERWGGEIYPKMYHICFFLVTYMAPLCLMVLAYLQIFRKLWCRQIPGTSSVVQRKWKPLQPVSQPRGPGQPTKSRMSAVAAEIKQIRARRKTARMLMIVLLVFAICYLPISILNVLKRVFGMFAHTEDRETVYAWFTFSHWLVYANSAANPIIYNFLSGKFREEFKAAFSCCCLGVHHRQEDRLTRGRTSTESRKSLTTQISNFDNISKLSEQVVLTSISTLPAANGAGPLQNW

Compared with `Cc1cccc(C2CCN(C(=O)Nc3c(F)cccc3N3CCN(C(C)C)CC3)CC2)c1` [Example 29, N-{2-fluoro-6-[4-(propan-2-yl)piperazin-1-yl]phenyl}-4-(3-methylphenyl)piperidine-1-carboxamide], `Cc1ccc(C2CCN(C(=O)Nc3c(F)cccc3N3CCN(C(C)C)CC3)CC2)cc1` [Example 9, N-{2-fluoro-6-[4-(propan-2-yl)piperazin-1-yl]phenyl}-4-(4-methylphenyl)piperidine-1-carboxamide] is higher in “Agonist Activity (%)” value: 77% for the first, 132% for the second.

Going from `Cc1ccc(C2CCN(C(=O)Nc3ccccc3[C@@H]3CN[C@@H](C(C)C)CO3)CC2)cc1` [Example 166, 4-(4-Methylphenyl)-N-{2-[(2R,5S)-5-(propan-2-yl)morpholin-2-yl]phenyl}piperidine-1-carboxamide] to `Cc1ccc(C2CCN(C(=O)Nc3ccccc3N3CCN(C(C)C)CC3C)CC2)cc1` (racemic) [Example 30, Rac-4-(4-methylphenyl)-N-{2-[2-methyl-4-(propan-2-yl)piperazin-1-yl]phenyl}piperidine-1-carboxamide], the “Agonist Activity (%)” value falls from 72% to 36%.

Going from `CC(CF)N1CCC(c2cccc(Cl)c2NC(=O)N2CCC(C)(c3noc(C4CC4)n3)CC2)CC1` (stereo not shown) [Example 143, N-{2-chloro-6-[1-(1-fluoropropan-2-yl)piperidin-4-yl]phenyl}-4-(5-cyclopropyl-1,2,4-oxadiazol-3-yl)-4-methylpiperidine-1-carboxamide] to `CC1(c2noc(C3CC3)n2)CCN(C(=O)Nc2c(Cl)cccc2N2CCN(C3CC3)CC2)CC1` [Example 113, N-[2-chloro-6-(4-cyclopropylpiperazin-1-yl)phenyl]-4-(5-cyclopropyl-1,2,4-oxadiazol-3-yl)-4-methylpiperidine-1-carboxamide], the “Agonist Activity (%)” value rises from 109% to 157%.

First: Cc1ccc(C2CCN(C(=O)Nc3c(F)cccc3C3=CCN(C(C)C)C3)CC2)cc1 [Example 139, N-{2-fluoro-6-[1-(propan-2-yl)-2,5-dihydro-1H-pyrrol-3-yl]phenyl}-4-(4-methylphenyl)piperidine-1-carboxamide]
Second: Cc1ccc(C2CCN(C(=O)Nc3c(Cl)cccc3N3CCN(C(C)C)CC3)CC2)cc1 [Example 35, N-{2-chloro-6-[4-(propan-2-yl)piperazin-1-yl]phenyl}-4-(4-methylphenyl)piperidine-1-carboxamide]
The “Agonist Activity (%)” value of the first is lower: 121% for the first, 163% for the second.

First: CCC1(c2noc(C3CC3)n2)CCN(C(=O)Nc2c(F)cccc2N2CCN(C(C)C)CC2)CC1 [Example 87, 4-(5-cyclopropyl-1,2,4-oxadiazol-3-yl)-4-ethyl-N-{2-fluoro-6-[4-(propan-2-yl)piperazin-1-yl]phenyl}piperidine-1-carboxamide]
Second: CC(C)N1CCN(c2cccc(F)c2NC(=O)N2CCC(C)(c3noc(C4CC4)n3)CC2)CC1 [Example 45, 4-(5-cyclopropyl-1,2,4-oxadiazol-3-yl)-N-{2-fluoro-6-[4-(propan-2-yl)piperazin-1-yl]phenyl}-4-methylpiperidine-1-carboxamide]
The “Agonist Activity (%)” value of the first is higher: 142% for the first, 127% for the second.

First: CC(C)N1CCN(c2cccc(Cl)c2NC(=O)N2CCC(C)(c3noc(C4CC4(F)F)n3)CC2)CC1 (stereo not shown) [Example 114, N-{2-chloro-6-[4-(propan-2-yl)piperazin-1-yl]phenyl}-4-[5-(2,2-difluorocyclopropyl)-1,2,4-oxadiazol-3-yl]-4-methylpiperidine-1-carboxamide]
Second: CC(C)N1CCN(c2cccc(Cl)c2NC(=O)N2CCC(F)(c3noc(C4CC4)n3)CC2)CC1 [Example 94, N-{2-chloro-6-[4-(propan-2-yl)piperazin-1-yl]phenyl}-4-(5-cyclopropyl-1,2,4-oxadiazol-3-yl)-4-fluoropiperidine-1-carboxamide]
The “Agonist Activity (%)” value of the first is lower: 155% for the first, 179% for the second.

Going from `COc1cccc(N2CCN(C(C)C)CC2)c1NC(=O)N1CCC(c2ccc(C)cc2)CC1` [Example 8, N-{2-methoxy-6-[4-(propan-2-yl)piperazin-1-yl]phenyl}-4-(4-methylphenyl)piperidine-1-carboxamide] to `COc1cccc(N2CCN(C(C)C)CC2)c1NC(=O)N1CCC(c2ccc(C(F)(F)F)cc2)CC1` [Example 15, N-{2-methoxy-6-[4-(propan-2-yl)piperazin-1-yl]phenyl}-4-[4-(trifluoromethyl)phenyl]piperidine-1-carboxamide], the “Agonist Activity (%)” value falls from 145% to 101%.

`CCN1CCN(c2ccccc2NC(=O)N2CCC(c3ccc(C)cc3)CC2)CC1` [Example 122, N-[2-(4-ethylpiperazin-1-yl)phenyl]-4-(4-methylphenyl)piperidine-1-carboxamide] and `CC(C)c1ccc(C2CCN(C(=O)Nc3c(F)cccc3N3CCN(C(C)C)CC3)CC2)cc1` [Example 40, N-{2-fluoro-6-[4-(propan-2-yl)piperazin-1-yl]phenyl}-4-[4-(propan-2-yl)phenyl]piperidine-1-carboxamide] are the same in “Agonist Activity (%)” value: 122% for the first, 122% for the second.

Compared with `Cc1ccc(-c2cccc(F)c2NC(=O)N2CCC(C)(c3cc(C4CC4)on3)CC2)cn1` [Example 68, 4-(5-cyclopropyl-1,2-oxazol-3-yl)-N-[2-fluoro-6-(6-methylpyridin-3-yl)phenyl]-4-methylpiperidine-1-carboxamide], `CC(C)c1ncc(-c2cccc(F)c2NC(=O)N2CCC(C)(c3noc(C4CC4)n3)CC2)cn1` [Example 72, 4-(5-cyclopropyl-1,2,4-oxadiazol-3-yl)-N-{2-fluoro-6-[2-(propan-2-yl)pyrimidin-5-yl]phenyl}-4-methylpiperidine-1-carboxamide] is higher in “Agonist Activity (%)” value: 68% for the first, 144% for the second.

First: CC(C)N1CCC(c2cccc(F)c2NC(=O)N2CCC(C)(c3cc(C4CC4)on3)CC2)CC1 [Example 53, 4-(5-cyclopropyl-1,2-oxazol-3-yl)-N-{2-fluoro-6-[1-(propan-2-yl)piperidin-4-yl]phenyl}-4-methylpiperidine-1-carboxamide]
Second: CC(C)N1CCN(c2cccc(F)c2NC(=O)N2CCC(c3cc(C4CC4)on3)CC2)CC1 [Example 52, 4-(5-cyclopropyl-1,2-oxazol-3-yl)-N-{2-fluoro-6-[4-(propan-2-yl)piperazin-1-yl]phenyl}piperidine-1-carboxamide]
The “Agonist Activity (%)” value of the first is lower: 140% for the first, 155% for the second.

Compared with `CC(C)N1CCN(c2cccc(Cl)c2NC(=O)N2CCC(C)(c3nc4ccccc4o3)CC2)CC1` [Example 66, 4-(1,3-benzoxazol-2-yl)-N-{2-chloro-6-[4-(propan-2-yl)piperazin-1-yl]phenyl}-4-methylpiperidine-1-carboxamide], `Cc1ncc(C2(C)CCN(C(=O)Nc3c(Cl)cccc3N3CCN(C(C)C)CC3)CC2)o1` [Example 92, N-{2-chloro-6-[4-(propan-2-yl)piperazin-1-yl]phenyl}-4-methyl-4-(2-methyl-1,3-oxazol-5-yl)piperidine-1-carboxamide] is higher in “Agonist Activity (%)” value: 129% for the first, 196% for the second.

Going from `CC(C)c1ncc(C2(C)CCN(C(=O)Nc3c(Cl)cccc3N3CCN(C(C)C)CC3)CC2)o1` [Example 93, N-{2-chloro-6-[4-(propan-2-yl)piperazin-1-yl]phenyl}-4-methyl-4-[2-(propan-2-yl)-1,3-oxazol-5-yl]piperidine-1-carboxamide] to `Cc1ccc(N2CCCN(C(=O)Nc3c(Cl)cccc3N3CCN(C(C)C)CC3)CC2)cc1` [Example 99, N-{2-chloro-6-[4-(propan-2-yl)piperazin-1-yl]phenyl}-4-(4-methylphenyl)-1,4-diazepane-1-carboxamide], the “Agonist Activity (%)” value falls from 203% to 75%.

First: Cc1ccc(C2(C)CCN(C(=O)Nc3c(Cl)cccc3C3CCN(C(C)C)CC3)CC2)cc1 [Example 148, N-{2-chloro-6-[1-(propan-2-yl)piperidin-4-yl]phenyl}-4-methyl-4-(4-methylphenyl)piperidine-1-carboxamide]
Second: Cc1ccc(C2(C)CCN(C(=O)Nc3c(Cl)cccc3C3=CCN(C(C)C)CC3)CC2)cc1 [Example 147, N-{2-chloro-6-[1-(propan-2-yl)-1,2,3,6-tetrahydropyridin-4-yl]phenyl}-4-methyl-4-(4-methylphenyl)piperidine-1-carboxamide]
The “Agonist Activity (%)” value of the first is higher: 176% for the first, 167% for the second.

`CC1(C#N)CCN(C(=O)Nc2c(Cl)cccc2C2=CCN(C3CCC3)CC2)CC1` [Example 159, N-[2-chloro-6-(1-cyclobutyl-1,2,3,6-tetrahydropyridin-4-yl)phenyl]-4-cyano-4-methylpiperidine-1-carboxamide] and `CC1(c2noc(C3CC3)n2)CCN(C(=O)Nc2c(Cl)cccc2C2=CCN(C3CCC3)CC2)CC1` [Example 131, N-[2-chloro-6-(1-cyclobutyl-1,2,3,6-tetrahydropyridin-4-yl)phenyl]-4-(5-cyclopropyl-1,2,4-oxadiazol-3-yl)-4-methylpiperidine-1-carboxamide] are the same in “Agonist Activity (%)” value: 150% for the first, 150% for the second.

First: CC(C)N1CCN(c2ccccc2NC(=O)N2CCC(C)(c3ccccc3)CC2)CC1 [Example 5, 4-methyl-4-phenyl-N-{2-[4-(propan-2-yl)piperazin-1-yl]phenyl}piperidine-1-carboxamide]
Second: CC(C)N1CCN(c2ccccc2NC(=O)N2CCC(C#N)(c3ccccc3)CC2)CC1.Cl [Example 6, 4-cyano-4-phenyl-N-{2-[4-(propan-2-yl)piperazin-1-yl]phenyl}piperidine-1-carboxamide]
The “Agonist Activity (%)” value of the first is higher: 156% for the first, 151% for the second.

`CC(C)N1CCN(c2cccc(F)c2NC(=O)N2CCC(Oc3ccccc3)CC2)CC1` [Example 27, N-{2-fluoro-6-[4-(propan-2-yl)piperazin-1-yl]phenyl}-4-phenoxypiperidine-1-carboxamide] was tested, and the “Agonist Activity (%)” value was 129%.
